# Experiments:
# [1] = In-vivo distribution and ear targeting in ear swelling model mice; conditions: male, mouse, 15 mg/kg
# Procedure: Ear swelling mouse model: Round pieces of filter paper that were 7 mm in diameter and soaked with dimethyl benzene were tightly attached for 15 s to the right ears of clean-grade male mice weighed 18-22 g.
# (§1) 72 mice with inflammation were randomized to 2 groups, each group having 36 animals. Before administration, the mice were fasted, but allowed to free access to water overnight. […] 0.167 h, 0.5 h, 1 h, 2 h, 4 h, 8 h, 12 h, 24 h, 48 h, 72 h, 96 h, and 120 h after administration, the eyeballs were removed to collect the blood, and then the mice were sacrificed. The heart, liver, spleen, kidney, and ear tissues were removed, washed with physiological saline, and weighed after the residual physiological saline was aspirated off with filter paper.
# (§2) The tissue samples (heart, liver, spleen, kidney, and ear) from the mice with inflammation were weighed, placed in a blood collection tube, added with 2 mL physiological saline, and dispersed by a tissue homogenizer at a high speed, to give a tissue homogenate. 200 μL acetonitrile was added to 200 μL of each tissue homogenate, vortexed for 5 min, and centrifuged for 10 min at 10000×g.
# The ear targeting efficiency (Te) refers to the ratio of AUCs of the same preparation in the ear and in other tissues. […]
# ear swelling model mice = experiment: Degree of ear swelling in ear swelling model mice; type: in vivo; conditions: 15 mg/kg; compared with the physiological saline group; difference in the weight of the ears
# Procedure: 48 inflammation model mice were randomized to 4 groups, each group having 12 animals. […] A control group having 12 mice with primary tumor was also set. […] All the animals were administered at days 1, 2, 3, 4, 6, 8, and 10 after surgery, and a total of 7 administrations were presented. Groups given with the neutrophil granulocytes of the same density and the physiological saline of the same volume were also set and used as a blank control. The mice were administrated for 3 consecutive days, and then sacrificed by cervical vertebra dislocation after the 3 administrations. Round specimens were punched from the same portion of the left and the right ears by a 7 mm punch and weighed on an analytical balance. The degree of ear swelling was indicated by the difference in the weight of the ears, and the anti-inflammatory effects of the drugs were compared, as shown in FIG. 15.
# [2] = In-vivo distribution and paw targeting in adjuvant arthritis model mice; conditions: mouse; for concentration at 0.5 h / concentration at 1 h / concentration at 2 h / concentration at 4 h / concentration at 8 h / concentration at 12 h: 15 mg/kg, iv ibuprofen 15 mg/kg
# Procedure: (§3) Adjuvant arthritis mouse model: The BCG vaccine was inactivated for 1 hr in a water bath at 80° C., and ground and mixed fully with autoclaved paraffin, to prepare a 10 mg/ml complete Freund adjuvant (CFA). 0.1 ml CFA was intracutaneously injected into the metatarsal in the right rear foot of the mice for inflammation induction.
# as §1, with “the metatarsal tissue in the right rear foot” for “ear tissues”
# as §2, with “metatarsal in the right rear foot)” for “ear)”
# The paw targeting efficiency (Te) refers to the ratio of AUCs of the same preparation in the inflammatory site, that is, the paw, and in other tissues. […] The larger the Te is, the higher the selectivity of the preparation for the non-specific inflammatory site (the metatarsal in the right rear foot) will be, as compared with the selectivity for other comparative tissues.
# [3] = test system: adjuvant arthritis model mice; experiment: Osteoarthritis index score in adjuvant arthritis model mice; type: in vivo; conditions: 15 mg/kg, 7 administrations; compared with the physiological saline group
# Procedure: as §3
# Streptococcus pneumoniae = experiment: Survival time of streptococcal pneumonia model mice; type: in vivo; conditions: 10 mg/kg, 7 administrations
# Procedure: 48 inflammation model mice were randomized to 4 groups, each group having 12 animals. […] All the animals were administered at days 1, 2, 3, 4, 6, 8, and 10 after surgery, and a total of 7 administrations were presented. Groups given with the neutrophil granulocytes of the same density and the physiological saline of the same volume were also set and used as a blank control.
smiles,measurement,setting,value
CC(C)Cc1ccc(C(C)C(=O)O)cc1 (centres unmarked) [ibuprofen],concentration at 1 h,[1],3990 ng/g
same,degree of ear swelling,ear swelling model mice,no obvious improvement
same,organ(s) with the largest distribution,[2],liver
same,concentration at 0.5 h,[2]; Distribution in Heart,6350 ng/g
same,concentration at 1 h,[2]; Distribution in Heart,4240 ng/g
same,concentration at 2 h,[2]; Distribution in Heart,2990 ng/g
same,concentration at 4 h,[2]; Distribution in Heart,1870 ng/g
same,concentration at 8 h,[2]; Distribution in Heart,550 ng/g
same,concentration at 12 h,[2]; Distribution in Heart,340 ng/g
same,concentration at 0.5 h,[2]; Distribution in Kidney,2790 ng/g
same,concentration at 1 h,[2]; Distribution in Kidney,3900 ng/g
same,concentration at 2 h,[2]; Distribution in Kidney,2680 ng/g
same,concentration at 4 h,[2]; Distribution in Kidney,1910 ng/g
same,concentration at 8 h,[2]; Distribution in Kidney,620 ng/g
same,concentration at 12 h,[2]; Distribution in Kidney,450 ng/g
same,concentration at 0.5 h,[2]; Distribution in Liver,11900 ng/g
same,concentration at 1 h,[2]; Distribution in Liver,10000 ng/g
same,concentration at 2 h,[2]; Distribution in Liver,8320 ng/g
same,concentration at 4 h,[2]; Distribution in Liver,7370 ng/g
same,concentration at 8 h,[2]; Distribution in Liver,6330 ng/g
same,concentration at 12 h,[2]; Distribution in Liver,2000 ng/g
same,concentration at 0.5 h,[2]; Distribution in Spleen,6010 ng/g
same,concentration at 1 h,[2]; Distribution in Spleen,3990 ng/g
same,concentration at 2 h,[2]; Distribution in Spleen,2420 ng/g
same,concentration at 4 h,[2]; Distribution in Spleen,1980 ng/g
same,concentration at 8 h,[2]; Distribution in Spleen,1210 ng/g
same,concentration at 12 h,[2]; Distribution in Spleen,670 ng/g
same,concentration at 0.5 h,[2]; Distribution in paw,430 ng/g
same,concentration at 1 h,[2]; Distribution in paw,370 ng/g
same,concentration at 2 h,[2]; Distribution in paw,210 ng/g
same,time at which the peak score occurs,[3],prolonged somewhat
C[C@H]1COc2c(N3CCN(C)CC3)c(F)cc3c(=O)c(C(=O)O)cn1c23 [levofloxacin],survival time,Streptococcus pneumoniae,about 21 days

# — patent US11085022B2 (priority 2014, dated 2021)
